Measurements: paper PMC9814779, “A triple farnesoid X receptor and peroxisome proliferator-activated receptor α/δ activator reverses hepatic fibrosis in diet-induced NASH in mice” (Communications Chemistry, 2020)

Test system: HEK293T and U2OS cells
Assay: Multiplex high-content live-cell toxicity assay
Format: cell-based
Details: seven concentrations between 100 nM and 100 µM; 2, 12 and 24 h
Procedure: Before proof-of-concept in vivo evaluation, we profiled stability and cytotoxicity of the triple modulator 41 in vitro. […] To determine cytotoxicity, we employed a multiplex high-content life-cell imaging screen[24] on HEK293T and U2OS cells. For this, the cells were treated with fluorescent probes to detect Annexin V as apoptosis marker (Annexin V Alexa488), dead cells (Yo-Pro3), and DNA/nucleus (Hoechst33342). Cells were then incubated with 41, OCA, or elafibranor at seven concentrations between 100 nM and 100 µM, and cell health was determined by fluorescence imaging after 2, 12, and 24 h (Fig. 6g–i and Supplementary Fig. 5).
Supplementary Methods for in Vitro Characterization
Cytotoxicity was assessed in a high content screen on two different cell lines, HEK293T (ATCC® CRL-1573™) and U2OS (ATCC®HTB-96™), essentially as described previously6. In brief, cells were cultured in DMEM plus L-Glutamine (high glucose) supplemented with 10 % FBS (Gibco) and Penicillin/Streptomycin (Gibco). […]
After 2 h, 12 h and 24 h, cellular shape and fluorescence was analyzed on an automated, high-content confocal microscope (CQ1, Yokogawa). […]
50 ms, 40%; bright field, 300ms, 100% transmission, one centered field per well, 7 z stacks per well with 55 µm spacing. Images were analyzed with the Pathfinder software (Yokogawa). Cells were detected and gated as previously described6. […]
The solubilized test compound (5 μL, final concentration 10 μM in phosphate buffer (0.1 M, pH 7.4)) was preincubated at 37 °C in 432 μL of phosphate buffer (0.1 M, pH 7.4) together with a 50 μL NADPH regenerating system (30 mM glucose-6-phosphate, 4 U/mL glucose-6-phosphate dehydrogenase, 10 mM NADP, 30 mM MgCl2). […] The supernatants were analyzed and test compound was quantified by HPLC: mobile phase: MeOH 83%/H2O 17%/formic acid 0.1%; flow-rate: 1 mL/min; stationary phase: MultoHigh Phenyl phase, 5 μm, 250×4, precolumn, phenyl, 5 μm, 20×4; detection wavelength: 330 and 254 nm; injection volume: 50 μL. […]

CC[C@H]1[C@@H](O)[C@@H]2[C@H](CC[C@]3(C)[C@@H]([C@H](C)CCC(=O)O)CC[C@@H]23)[C@@]2(C)CC[C@@H](O)C[C@@H]12 [OCA, 6α-ethylchenodeoxycholic acid, reference compound]
cytotoxicity (cell health, apoptosis, necrosis, lysis): non-toxic up to 100 µM concentration over 24 h

CC(C)(C)c1ccc(C(=O)Nc2cccc(CCC(=O)O)c2)c(NC(=O)c2ccc(-c3ccco3)cc2)c1 [compound 41, 3-(3-[4-{tert-Butyl}-2-{4-(2-furyl)}benzamido]phenyl)propanoic acid]
cytotoxicity (cell health, apoptosis, necrosis, lysis): no notable toxic effects up to high 100 µM concentration
